# Square brackets hold non-standard residues; d marks the D form. Ends that are not written are not given here. Trp(2,5,7-tBu3) = CC(C)(C)c1cc(C(C)(C)C)c2[nH]c(C(C)(C)C)c(C[C@H](N)C(=O)O)c2c1
# How the values were obtained:
# A20 cells = assay: MTT cytotoxicity assay against A20 lymphoma cells; format: cell-based, Murine; conditions: for ΔIC50 on further increase of charge: 4a→5 and 6a→7, A20 cells; for IC50: A20 cells; for ΔIC50 (difference in activity against A20): compared with peptide 4a
# Experimental: (§1) The first screen against A20 and MRC-5 was done manually, while the lymphoma panel screen were done at Marbio (Tromsø) using an automated platform (Biomek NX, Beckman Coulter). Cells were automatically counted (Z1 Coulter Particle Counter, Beckman Coulter) and the cells seeded out in 96-well plates. The plates were incubated for at least 16 hours before the start of the assay. The growth media was removed and the cells washed once with 100 μL assay media (RPMI-1640). Cells were then treated with 100 μL peptide solution (concentration varying from 500-10 μg/mL) for 4 hrs. Normal assay media and assay media containing 0.1% Triton were used as negative and positive controls, respectively. After this period 10 μL of a MTT solution (5 mg/mL) was added to each well and the plate incubated for a further 2 hrs. Following this 70 μL of the media was carefully removed and 100 μL acidified isopropanol added. The formed formazan crystals were dissolved by agitating the cells with a micropipette and by shaking (30 mins). The absorbance of the reduced MTT (formazan) was read on Versa Max Microplate Reader (Molecular Devices) at 590 nm. All assays, unless mentioned otherwise, were done in triplicate.
# MRC-5 cells = assay: MTT cytotoxicity assay against MRC-5 normal fibroblasts (selectivity, SI-1); format: cell-based, Human
# Experimental: The first screen against A20 and MRC-5 was done manually, while the lymphoma panel screen were done at Marbio (Tromsø) using an automated platform (Biomek NX, Beckman Coulter).
# Cells were automatically counted (Z1 Coulter Particle Counter, Beckman Coulter) and the cells seeded out in 96-well plates. The plates were incubated for at least 16 hours before the start of the assay.
# as §1, with “The” for “The first screen against A20 and MRC-5 was done manually, while the lymphoma panel screen were done at Marbio (Tromsø) using an automated platform (Biomek NX, Beckman Coulter). Cells were automatically counted (Z1 Coulter Particle Counter, Beckman Coulter) and the cells seeded out in 96-well plates. The plates were incubated for at least 16 hours before the start of the assay. The”
# During the initial screening process peptide analogues was tested against normal human fibroblasts (SI-1) and the results used to estimate cytotoxicity towards healthy cells surrounding the tumor.
# [1] = Cardiovascular toxicity assessment in telemeterized rats; format: in vivo, Sprague-Dawley rats; conditions: IV twice-daily, telemetry -1 to 8 hours
# Experimental: Male Sprague-Dawley (Charles River, Portage, Mich.) rats (320-400 g) were instrumented with DSI (St. Paul, Minn.) telemetry transmitters by CorDynamics.
# EWL-6 was stored in a freezer set to maintain approximately −20° C. and protected from light. A formulation comprising EWL-6 was prepared at a dose volume of 1 mL/kg/dose in 0.9% sodium chloride for injection, U.S.P., for IV dosing. Doses were filtered through a […] PP filter prior to injection.
# Each rat was manually restrained and vehicle or EWL-6 dosed twice-daily intravenously over approximately 1-2 minutes. Daily doses were separated by approximately 4 hours.
# Pulse pressure (FIG. 8) and mean arterial pressure (FIG. 9) were recorded for −1 to 8 hours following the first daily dose via telemetry and reported in 1 minute averages from −1 to 8 hours following the first daily dose.
# [2] = system: SU-DHL-6 (diffuse large B cell lymphoma); format: cell-based, Human; conditions: 16 h
# Experimental: as §1, with “Cells were then treated with 100 μL peptide solution (concentration varying from 500-10 μg/mL) for 4 hrs.” left out
# [3] = system: Namalawa (Burkitt's lymphoma); format: cell-based, Human; conditions: 16 h
# Experimental: as §1
# [4] = system: Ramos (Burkitt's lymphoma); format: cell-based, Human; conditions: 16 h
# Experimental: as §1
# three T-lymphoma lines = format: cell-based, Human; conditions: 16 h
# Experimental: as §1
# A20 lymphomas = conditions: mouse, in vivo
# Experimental: A20 tumor cells were harvested, washed in RPMI-1640 and inoculated (i.d.) into the left side of the abdomen in BALB/c mice (5×10^6 cells in 50 μl RPMI-1640 per mouse). When the tumor size reached 20 mm^2 the mice were split into three groups and treated; Group1—nine mice with the vehicle (0.9% NaCl in sterile H2O), Group2a—eight mice where the tumors were treated with peptide 6a, and Group 3a—nine mice where the tumors were treated with peptide 11. Intralesional injections were performed once a day for three consecutive days.
# Tumor size was measured three times a week using an electronic caliper and expressed as the area of an ellipse [(maximum dimension/2)×(minimum dimension/2)×[…]. Animals were killed when the tumor exceeded 100 mm^2. Animals were killed also if the tumor had not reached that size but presented ulcerations or the animals developed metastasis.
# Survival curves were compared by the log-rank test. Groups were compared using one-way ANOVA test with Tukey's multiple comparison. Differences were considered significant when P<0.05.
# [5] = system: DU-145 Prostate carcinoma; format: cell-based; conditions: 4 h
# Experimental: as §1, with “The” for “The first screen against A20 and MRC-5 was done manually, while the lymphoma panel screen were done at Marbio (Tromsø) using an automated platform (Biomek NX, Beckman Coulter). Cells were automatically counted (Z1 Coulter Particle Counter, Beckman Coulter) and the cells seeded out in 96-well plates. The plates were incubated for at least 16 hours before the start of the assay. The”
# HT-29 Colon carcinoma = format: cell-based; conditions: 4 h
# Experimental: as §1, with “The” for “The first screen against A20 and MRC-5 was done manually, while the lymphoma panel screen were done at Marbio (Tromsø) using an automated platform (Biomek NX, Beckman Coulter). Cells were automatically counted (Z1 Coulter Particle Counter, Beckman Coulter) and the cells seeded out in 96-well plates. The plates were incubated for at least 16 hours before the start of the assay. The”
# [6] = Table 2, analogues of 6a, MRC-5 fibroblasts versus A20 lymphoma, MTT
# [7] = Table 3, MRC-5 fibroblasts versus A20 lymphoma
# [8] = Table 1, selectivity, normal human fibroblasts (MRC-5) versus A20 lymphoma, MTT
# [9] = five most active peptides from the A20 screening, tested against normal human fibroblasts
substance,measurement,setting,value
RWRW-GG-RRRRRRR (SEQ ID NO: 13) (RWRWGGRRRRRRR-NH2) [Peptide 5],ΔIC50 on further increase of charge,A20 cells,≈ 1 μM
"WWWGGRRRRRRRRR [Peptide 6b, WWWGGRRRRRRRRR (SEQ ID NO: 21)]",IC50,"A20 cells; Table 3, MTT, 4 hrs treatment",3.5 µM
same,SI-1,MRC-5 cells; [6],9
same,SI-1,MRC-5 cells; [7],9
"WRWRWGGKKKKKKK [WRWRW-GG-KKKKKKK, WRWRW-GG-KKKKKKK (SEQ ID NO:26)]",IC50,A20 cells; as described in Example 1,13.2 µM
W-GG-RRRRRRR (SEQ ID NO: 10) (WGGRRRRRRR-NH2) [Peptide 2],ΔIC50 (difference in activity against A20),A20 cells,58 µM
WRWRW-GG-RRRRR (SEQ ID NO: 19) (WRWRWGGRRRRR-NH2) [Peptide 9],SI-1,MRC-5 cells; [6],23
"WGRRRRRGWGRRRRGW-NH2 [EWL-6, WGRRRRRGWGRRRRGW (SEQ ID NO: 8)]",mean arterial pressure compared to control,[1],No noticeable difference
same,pulse pressure compared to control,[1],No noticeable difference
"WR(Tbt)-GG-RRRRRRR (SEQ ID NO: 16) (WR[Trp(2,5,7-tBu3)]GGRRRRRRR-NH2; N-terminus assumed; SMILES CC(C)(C)c1cc(C(C)(C)C)c2[nH]c(C(C)(C)C)c(C[C@H](NC(=O)[C@H](CCCNC(=N)N)NC(=O)[C@@H](N)Cc3c[nH]c4ccccc34)C(=O)NCC(=O)NCC(=O)N[C@@H](CCCNC(=N)N)C(=O)N[C@@H](CCCNC(=N)N)C(=O)N[C@@H](CCCNC(=N)N)C(=O)N[C@@H](CCCNC(=N)N)C(=O)N[C@@H](CCCNC(=N)N)C(=O)N[C@@H](CCCNC(=N)N)C(=O)N[C@@H](CCCNC(=N)N)C(N)=O)c2c1) [Peptide 4b]",SI-1,MRC-5 cells; [8],2
same,SI-1 / selectivity,MRC-5 cells; [9],almost no selectivity at all
WRWRW-GG-RRRR (SEQ ID NO: 20) (WRWRWGGRRRR-NH2) [Peptide 10],SI-1,MRC-5 cells; [6],>23
KLAKLAKKLAKLAK-GG-RRRRRRR (SEQ ID NO: 9) [Peptide 1b],SI-1,MRC-5 cells; [8],5
same,SI-1 / selectivity,MRC-5 cells; [9],low selectivity
"WRRRGRRWRGRRRW [Peptide 6c, WRRRGRRWRGRRRW (SEQ ID NO: 22)]",IC50,"A20 cells; Table 3, MTT, 4 hrs treatment",6.1 µM
same,SI-1,MRC-5 cells; [6],>100
same,SI-1,MRC-5 cells; [7],>100
"WRWRWGGRRRRRRR-NH2 [Peptide 6a, WRWRW-GG-RRRRRRR (SEQ ID NO: 14)]",IC50,[2],< 10 µM
same,IC50,[3],< 10 µM
same,IC50,[4],< 10 µM
same,IC50,three T-lymphoma lines,~4.6 µM
same,systemic toxic effects,A20 lymphomas,no signs of systemic toxic effects
"(Tbt)R(Tbt)-GG-RRRRRRR (SEQ ID NO: 17) ([Trp(2,5,7-tBu3)]R[Trp(2,5,7-tBu3)]GGRRRRRRR-NH2; N-terminus assumed; SMILES CC(C)(C)c1cc(C(C)(C)C)c2[nH]c(C(C)(C)C)c(C[C@H](NC(=O)[C@H](CCCNC(=N)N)NC(=O)[C@@H](N)Cc3c(C(C)(C)C)[nH]c4c(C(C)(C)C)cc(C(C)(C)C)cc34)C(=O)NCC(=O)NCC(=O)N[C@@H](CCCNC(=N)N)C(=O)N[C@@H](CCCNC(=N)N)C(=O)N[C@@H](CCCNC(=N)N)C(=O)N[C@@H](CCCNC(=N)N)C(=O)N[C@@H](CCCNC(=N)N)C(=O)N[C@@H](CCCNC(=N)N)C(=O)N[C@@H](CCCNC(=N)N)C(N)=O)c2c1) [Peptide 4c]",ΔIC50 (difference in activity against A20),A20 cells,small and unexpected decrease in activity
same,SI-1,MRC-5 cells; [8],1
same,SI-1 / selectivity,MRC-5 cells; [9],almost no selectivity at all
"RWRWRWGGRRRRRRR-NH2 [Peptide 7, RWRWRW-GG-RRRRRRR (SEQ ID NO: 15)]",ΔIC50 on further increase of charge,A20 cells,≈ 1 μM
same,SI-1 / selectivity,MRC-5 cells; 16 h,higher than 10
same,SI-1,MRC-5 cells; [8],12
"WRRRRRWRRRRW-NH2 [Peptide 11, WRRRRRWRRRRW (SEQ ID NO: 23)]",IC50,[2],< 10 µM
same,IC50,[3],< 10 µM
same,IC50,[4],< 10 µM
same,IC50,three T-lymphoma lines,~4.6 µM
same,IC50,[5],69 µM
same,IC50,HT-29 Colon carcinoma,70 µM
same,systemic toxic effects,A20 lymphomas,no signs of systemic toxic effects
WRWRW-GG-RRRRRR (SEQ ID NO: 18) [Peptide 8],SI-1,MRC-5 cells; [6],21

# — patent US10287320B2, “Anti-lymphoma peptides” (Universitetet i Tromsø—Norges Arktiske Universitet, priority 2014, dated 2019)
